Measured values reported in US7754896B2, “Indol-alanine derivatives as selective S1P4-agonists” (Novartis AG, priority 2004, dated 2010).

Biological target: T1, S1P5 (Homo sapiens, UniProt Q9H228)
T1 construct: expressed in transfected cells
Test: GTPγS binding assay, S1P5
Assay type: biochemical
Details: CHO cells expressing S1P5
Description: The human S1P5 (GI: 30171332 or GenBank™ accession number AY262689, TREMBL: Q9H228) is cloned by a PCR based method. Lung and spleen cDNA (marathon cDNA) is obtained from BD Biosciences Chlontech (BD Biosciences Chlontech, Palo Alto, Calif. 94303, USA); genomic DNA is isolated from HeLa cells using standard procedures. Following oligonucleotides are used for the PCR reaction: forward primer CACCATGGAGTCGGGGCTGCTGCG (−4 to 20, GenBank™ accession number AY262689) and reverse primer 5′-TCAGTCTGCAGCCGGTTCTGATACCAGAGTC (1197 to 1131, AY262689), the initiation of the translation (ATG) and the stop codon are underlined. The PCR is performed In the presence of 0.2-0.4 μg cDNA, 1× reaction buffer (10× PfuTurbo DNA polymerase buffer, Stratagene, La Jolla, Calif. 92037, USA), 0.5 μM primers, 0.25 mM dNTP's and 2.5 units PfuTurbo DNA polymerase (Stratagene), a first step at 95° C. for 2 min, 30 cycles (30 sec at 95° C., 30 sec at 60° C. and 90 sec at 72° C.) and final step of 10 min at 72° C. The amplified product of around 1100 bp is analyzed by standard agarose gel-electrophoresis. […]
Membrane proteins are prepared from wild type CHO-K1 and the CHO cell clones expressing human S1P4. […] The protein concentration is determined using the Bio Rad Protein Assay and human IgG as standard. […]

T1 sequence (Q9H228 whole entry): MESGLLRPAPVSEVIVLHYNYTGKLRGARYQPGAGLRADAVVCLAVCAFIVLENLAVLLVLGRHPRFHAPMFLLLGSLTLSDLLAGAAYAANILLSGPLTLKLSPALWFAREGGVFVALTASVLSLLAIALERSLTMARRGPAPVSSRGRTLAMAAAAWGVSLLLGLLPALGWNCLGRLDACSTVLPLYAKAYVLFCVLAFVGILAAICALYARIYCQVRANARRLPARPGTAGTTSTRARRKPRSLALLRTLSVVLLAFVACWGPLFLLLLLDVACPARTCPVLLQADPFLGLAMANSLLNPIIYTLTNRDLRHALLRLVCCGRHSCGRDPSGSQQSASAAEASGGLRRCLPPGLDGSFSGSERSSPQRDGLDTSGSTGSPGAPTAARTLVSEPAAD

`NC(CNC(=O)c1cc2c(-c3ccccc3Cc3ccccc3)cccc2[nH]1)C(=O)O` (stereo not shown) [Example 2] was tested, and the EC50 was greater than 10 µM.
